A short description of data set [1]: Payload calculations and safety consideration. Conditions: device designed for delivery over 6 months, failure. How it is done:
The loading requirements for a device are analyzed based upon a zero-order release profile that maintains concentration in the posterior of the eye for at least a 4 month period. For example, based on a 5 mm×5 mm thin-film with 20 nm pores, with a void space of 50% a maximal drug load in this device is 1.3 mg of lyophilized drug, with release rates as high 2 μg/day/mm^2 based on membrane experiments. Desired release rates depend on drug affinity, vitreous half-life, and target vitreous concentration. […] Complete dose dumping for a device designed for delivery over 6 months would produce systemic drug concentration of less than 3.4 ng/ml upon failure, which falls well below the 11-27 ng/ml threshold thought to inhibit VEGF by 50%. In addition, a multi-chambered reservoir (FIG. 10) minimizes the risk that the entire drug payload could be inadvertently dumped. Based upon conservative estimates of Lucentis© half-life in the vitreous humor, a device loaded with approximately 800 μg of drug is estimated to maintain therapeutic levels for a 6 month or longer period.

A short description of data set [2]: Release of FITC-BSA protein from nanostructured PCL devices. Format: physicochemical. Conditions: nanostructured PCL devices (n=3), pore size 20-40 nm. An excerpt:
Multilayer thin film devices having pore sizes in the range of […]-40 nm were fabricated as described herein.

Consider 2 substances from patent publication US11185499B2, “Multilayer thin film drug delivery device and methods of making and using the same” (The Regents of the University of California, priority 2011, dated 2021).

As for “ranibizumab: anti-VEGF formulation (Lucentis, Genentech, Inc.)”, the “systemic drug concentration upon complete dose dumping” value in data set [1] was “less than 3.4 ng/ml”. For “FITC-BSA: FITC-BSA protein released from nanostructured PCL devices”, in data set [2], the release rate is 1 µg/day and the “time period of release” value is recorded as 210 days.
